Results: patent US20160160234A1, “COMPOSITION FOR TRANSFERRING GENE TO CELL” (ISHIHARA SANGYO KAISHA, LTD., priority 2013, published 2016)

Columns and labels:
[1] = test system: A549 cells
Experimental: A549 cells and NIH-3T3 cells, both of which are adherent cultured cells, were individually seeded in a 96-well plate at a cell density of 4×10^3 cells/well one day before transfection.
84 μL of a 10 mg/mL sericin (Wako Pure Chemical Industries, Ltd., trade name: Pure Sericin) aqueous solution was added to 6 μL of a ½% sorbitan sesquioleate (Nacalai Tesque, Inc.) ethanol solution, and the mixture was mixed by pipetting.
As a virus-derived envelope, a 47.8 HAU/μL inactivated HVJ envelope (GenomONE-CF: registered trademark, produced by Ishihara Sangyo Kaisha, Ltd.) suspension, which is derived from Sendai virus, was used in the experiment.
After 54 μL of PBS was added to 6 μL of the inactivated HVJ envelope suspension, 6 μL of a 2% Triton X-100 PBS solution was added thereto. The mixture was centrifuged at 4° C., 10,000 g for 5 minutes with a high-speed refrigerated microcentrifuge, thereby pelletting down the inactivated HVJ envelope. […] After 2.5 μL of the liquid mixture of the inactivated HVJ envelope and the pCMV-GL3 plasmid was transferred to each tube, 28 μL of a 1/20 mg/mL laminin (SIGMA) aqueous solution or water was individually added thereto, and each mixture was mixed by pipetting. […]

[2] = test system: RAW264.7 cells; experiment: Luciferase gene expression after transfection with pCMV-GL3 plasmid (ONE-Glo Luciferase Assay System); format: cell-based
Experimental: Gene transfer using FuGENE HD transfection reagent (Roche) was performed as follows.
Gene transfer using Polyethylenimine Max (Polyscience) was performed as follows. 13.5 μL of water was added to 1.5 μL of 1 mg/mL Polyethylenimine Max (pH of 7, MW of 25,000).

[3] = test system: K562 cells; experiment: as above; format: cell-based; conditions: Example 16, in combination with the composition of the present invention or Lipofectamine LTX&PLUS reagent
Experimental: (§1) The next day, whether gene transfer was achieved was confirmed by measuring the enzyme activity (relative value) of luciferase protein produced from the pCMV-GL3 plasmid by using ONE-Glo Luciferase Assay System (Promega).
K562 cells, which are suspension cultured cells, were seeded in a 96-well plate at a cell density of 2×10^4 cells/well on the day of transfection.
154 μL of a 15 mg/mL sericin PBS solution was added to 11 μL of a ½% sorbitan sesquioleate (Nacalai Tesque, Inc.) ethanol solution, and the mixture was mixed by pipetting.
48 μL of the prepared solution above was added to 40 μL of a 1/10 mg/mL pCMV-GL3 plasmid solution, and the mixture was mixed by pipetting. 20 μL of a 1 mg/mL protamine sulfate PBS solution was then added to prepare a test composition (prepared for each kind of cells; total of three tubes). The test composition was added at 15 μL/well to the cell culture media.
Gene transfer using Lipofectamine LTX&PLUS reagent (Invitrogen) was performed as follows. 0.7 μL of a 1 mg/mL pCMV-GL3 plasmid solution and 0.7 μL of a PLUS reagent were added to 140 μL of Opti-MEM I Reduced Serum Medium (Gibco), and the mixture was allowed to stand for 5 minutes. 2.8 μL of Lipofectamine LTX reagent was further added thereto, and the mixture was allowed to stand for 25 minutes, after which it was added at 20 μL/well to the cell culture media. […]

[4] = test system: NIH-3T3 cells; experiment: as above; format: cell-based
Experimental: NIH-3T3 cells, which are adherent cultured cells, were seeded in a 96-well plate at a cell density of 4×10^3 cells/well one day before transfection.
16.8 μL of a 5 mg/mL sericin PBS solution was added to 1.2 μL of a ¼% sorbitan sesquioleate (Nacalai Tesque, Inc.) ethanol solution, and the mixture was mixed by pipetting.
16.8 μL of a 5 mg/mL sericin PBS solution was added to 1.2 μL of a ¼% sorbitan monooleate (SIGMA) ethanol solution, and the mixture was mixed by pipetting.
0.6 μL of a ⅕% L-α-dioleoyl phosphatidylethanolamine (Wako Pure Chemical Industries, Ltd.; hereinafter referred to as “DOPE”) ethanol solution or 0.6 μL of ethanol was individually added to 0.6 μL of a ⅕% cardiolipin (SIGMA) ethanol solution. 16.8 μL of a 5 mg/mL sericin PBS solution was further added to each mixture, and each of the resulting mixtures was mixed by pipetting.
15 μL of a 1/10 mg/mL pCMV-GL3 plasmid solution was added to 18 μL of each of the above prepared solutions, and each mixture was mixed by pipetting. 7.5 μL of a 1 mg/mL protamine sulfate PBS solution was then added to each of the resulting mixtures, thereby preparing test compositions. Each of these test compositions was added at 15 μL/well to the cell culture media.
11.2 μL of ¼, ½, 3, 5, 20, 30, or 50 mg/mL sericin PBS solution or PBS was individually added to 0.8 μL of a ½% sorbitan sesquioleate (Nacalai Tesque, Inc.) ethanol solution, and each mixture was mixed by pipetting.
10 μL of a 1/10 mg/mL pCMV-GL3 plasmid solution was added to 12 μL of each of the prepared solutions above, and each mixture was mixed by pipetting.

[5] = test system: Jurkat cells; experiment: as above; conditions: Example 12, lipid ethanol solutions ¼% or ⅕%, 5 mg/mL sericin, 1 mg/mL protamine sulfate, 15 μL/well, next day
Experimental: Jurkat cells, which are suspension cultured cells, were seeded in a 96-well plate at a cell density of 4×10^4 cells/well on the day of transfection.
280 μL of a 15 mg/mL sericin (Wako Pure Chemical Industries, Ltd., trade name: Pure Sericin) PBS solution was added to 20 μL of a ½% sorbitan sesquioleate (Nacalai Tesque, Inc.) ethanol solution, and the mixture was mixed by pipetting.
The inactivated HVJ envelope suspension was diluted 2-fold, 4-fold, 8-fold, 16-fold, and 32-fold with PBS. 8 μL of a 0.3% Triton X-100 PBS solution was added to 4 μL of each of these diluted, inactivated HVJ envelope suspensions, and each mixture was centrifuged at 4° C., 10,000 g for 5 minutes with a high-speed refrigerated microcentrifuge, thereby pelleting down the inactivated HVJ envelope. […] 4 μL of PBS was added to 12.5 μL of each of the individual HVJ envelope suspensions containing the plasmid or to a 1/10 mg/mL pCMV-GL3 plasmid solution, and 20 μL of the liquid mixture of sorbitan sesquioleate and sericin prepared in advance was further added to each mixture. After each of the resulting mixtures was mixed by pipetting, 6.25 μL of a 1 mg/mL protamine sulfate PBS solution was added to each mixture, thereby preparing test compositions. Each of these test compositions was added at 9.5 μL/well to the cell culture medium.
as §1
112 μL of a 15 mg/mL sericin (Wako Pure Chemical Industries, Ltd., trade name: Pure Sericin) PBS solution was added to 8 μL of a ½% sorbitan sesquioleate (Nacalai Tesque, Inc.) ethanol solution, and the mixture was mixed by pipetting.
10 μL of a 0.2% Triton X-100 PBS solution was added to 1 μL of the inactivated HVJ envelope suspension, and the mixture was centrifuged at 4° C., 10,000 g for 5 minutes with a high-speed refrigerated microcentrifuge, thereby pelletting down the inactivated HVJ envelope. […]

[6] = test system: A549 cells; experiment: Gene transfer of pTurboGFP-N plasmid observed with a fluorescence microscope; format: cell-based; conditions: Example 1, 5 μL/well, next day, FIG. 3
[7] = test system: THP-1 cells; experiment: as above; format: cell-based; conditions: Example 1, 5 μL/well, next day, FIG. 3
[8] = Example 16, in combination with the composition of the present invention or Lipofectamine LTX&PLUS reagent
[9] = Example 12, lipid ethanol solutions ¼% or ⅕%, 5 mg/mL sericin, 1 mg/mL protamine sulfate, 15 μL/well, next day
[10] = Example 11, pCMV-GL3 in inactivated HVJ envelope (component F) in all compositions, 8.1 μL/well, next day

With `O=C(NCCCNc1nc(Nc2cccc(NC(=O)N3CCCC3)c2)ncc1I)c1cccs1` [compound A, N-[3-[[5-iodo-4-[[3-[(2-thienylcarbonyl)amino]propyl]amino]-2-pyrimidinyl]amino]phenyl]-1-pyrrolidinecarboxamide] the “improvement in gene expression by compound A used in combination with a gene transfer vector” value (“improvement in gene expression” below) [1, 8] was “improvement in the gene expression was confirmed”, the “improvement in gene expression” value [2, 8] was “improvement in the gene expression was confirmed” and the “improvement in gene expression” value ([2]; Example 17, in combination with the composition of the present invention, Lipofectamine LTX&PLUS reagent, FuGENE HD transfection reagent, or Polyethylenimine Max) was “improvement in gene expression was confirmed”. For the same molecule, the “improvement in gene expression” value [3] was “improvement in the gene expression was confirmed”.

Sericin was tested, and the “Luciferase gene expression level (relative value)” value ([4]; Example 13, Sericin concentration 0 mg/mL (PBS), with ½% sorbitan sesquioleate and 1 mg/mL protamine sulfate, 15 μL/well) was 346, the “Luciferase gene expression level (relative value)” value ([4]; Example 13, Sericin concentration 3 mg/mL, with ½% sorbitan sesquioleate and 1 mg/mL protamine sulfate, 15 μL/well) was 761,785 and the “Luciferase gene expression level (relative value)” value ([4]; Example 13, Sericin concentration 5 mg/mL, with ½% sorbitan sesquioleate and 1 mg/mL protamine sulfate, 15 μL/well) was 729,703. The “Luciferase gene expression level (relative value)” value ([4]; Example 13, Sericin concentration 20 mg/mL, with ½% sorbitan sesquioleate and 1 mg/mL protamine sulfate, 15 μL/well) was 762,661, the “Luciferase gene expression level (relative value)” value ([4]; Example 13, Sericin concentration 30 mg/mL, with ½% sorbitan sesquioleate and 1 mg/mL protamine sulfate, 15 μL/well) was 458,447 and the “Luciferase gene expression level (relative value)” value ([4]; Example 13, Sericin concentration 50 mg/mL, with ½% sorbitan sesquioleate and 1 mg/mL protamine sulfate, 15 μL/well) was 24,194. The “Luciferase gene expression level (relative value)” value ([4]; Example 13, Sericin concentration ¼ mg/mL, with ½% sorbitan sesquioleate and 1 mg/mL protamine sulfate, 15 μL/well) was 77,190, the “Luciferase gene expression level (relative value)” value ([4]; Example 13, Sericin concentration ½ mg/mL, with ½% sorbitan sesquioleate and 1 mg/mL protamine sulfate, 15 μL/well) was 285,344 and the “gene expression compared with the case where sericin was not used” value ([4]; Example 13, ¼ to 50 mg/mL sericin) was “gene expression was improved”.

cardiolipin was tested, and the “Luciferase gene expression level (relative value)” value [5] was “makes it possible to introduce a gene” and the “Luciferase gene expression level (relative value)” value [4, 9] was “makes it possible to introduce a gene”.

protamine sulfate [component C] was tested, and the “Luciferase gene expression level (relative value)” value [1, 10] was “gene transfer was observed”, the “gene transfer (green fluorescent protein TurboGFP observed with a fluorescence microscope)” value [6] was “Almost no gene transfer” and the “gene transfer (green fluorescent protein TurboGFP observed with a fluorescence microscope)” value [7] was “Almost no gene transfer”. The “Luciferase gene expression level (relative value)” value [4, 10] was “gene transfer was observed”.

In the case of sorbitan monooleate, the “Luciferase gene expression level (relative value)” value [5] is reported as “makes it possible to introduce a gene” and the “Luciferase gene expression level (relative value)” value [4, 9] is reported as “makes it possible to introduce a gene”.

sorbitan sesquioleate was tested, and the “Luciferase gene expression level (relative value)” value [5] was “makes it possible to introduce a gene”, the “Luciferase gene expression level (relative value)” value [4, 9] was “makes it possible to introduce a gene” and the gene expression ([4]; Example 14, 1/50 to 5/2% sorbitan sesquioleate) was “gene expression was observed”. The “Luciferase gene expression level (relative value)” value ([4]; Example 14, Sorbitan sesquioleate concentration 1/2%, with 10 mg/mL sericin and 1 mg/mL protamine sulfate, 15 μL/well) was 1,349,057, the “Luciferase gene expression level (relative value)” value ([4]; Example 14, Sorbitan sesquioleate concentration 1/10%, with 10 mg/mL sericin and 1 mg/mL protamine sulfate, 15 μL/well) was 291,463 and the “Luciferase gene expression level (relative value)” value ([4]; Example 14, Sorbitan sesquioleate concentration 1/50%, with 10 mg/mL sericin and 1 mg/mL protamine sulfate, 15 μL/well) was 887. For the same molecule, the “Luciferase gene expression level (relative value)” value ([4]; Example 14, Sorbitan sesquioleate concentration 5/2%, with 10 mg/mL sericin and 1 mg/mL protamine sulfate, 15 μL/well) was 425,949.
